From patent US20150080438A1, “6,7-Dihydro-5H-benzo[7]annulene derivatives, processes for their preparation, pharmaceutical products comprising them and their use for preparing medicaments” (Bayer Intellectual Property GmbH, priority 2011, published 2015)

Target: T1, oestrogen receptor (ER) (Homo sapiens, UniProt P03372)
T1 construct: These MVLN cells express, along with the functional oestrogen receptor (ER), a reporter construct; endogenous in cells; host or cells: MVLN cells (MCF7 derivative with ER-responsive luciferase reporter)
T1 sequence (P03372 1-595): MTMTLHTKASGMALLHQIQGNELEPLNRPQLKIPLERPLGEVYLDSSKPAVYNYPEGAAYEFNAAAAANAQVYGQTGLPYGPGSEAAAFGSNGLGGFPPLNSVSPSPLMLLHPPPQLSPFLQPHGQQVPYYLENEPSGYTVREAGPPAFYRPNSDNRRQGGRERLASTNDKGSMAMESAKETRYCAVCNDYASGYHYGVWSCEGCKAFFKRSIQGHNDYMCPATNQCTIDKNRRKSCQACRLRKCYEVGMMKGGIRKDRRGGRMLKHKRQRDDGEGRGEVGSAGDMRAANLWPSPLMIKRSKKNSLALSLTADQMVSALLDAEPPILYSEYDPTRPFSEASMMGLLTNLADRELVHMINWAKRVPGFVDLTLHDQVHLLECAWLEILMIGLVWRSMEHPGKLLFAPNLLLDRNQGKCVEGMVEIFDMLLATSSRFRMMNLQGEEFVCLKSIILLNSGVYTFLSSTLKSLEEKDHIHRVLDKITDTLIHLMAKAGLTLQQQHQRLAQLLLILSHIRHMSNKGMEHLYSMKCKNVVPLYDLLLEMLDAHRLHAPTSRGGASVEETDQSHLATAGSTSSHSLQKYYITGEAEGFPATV
Assay: Anti-oestrogenic action in MVLN cells (inhibition of estradiol-induced luciferase, transactivation antagonism)
Format: cell-based
Details: inhibition of estradiol-induced luciferase activity, read-out: Anti-oestrogenic action in vitro: MVLN transactivation antagonism IC50
Method in brief: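 MCF7-derived MVLN cells carrying an ER-driven luciferase reporter; test compounds applied with estradiol, and anti-oestrogenic action scored as inhibition of the estradiol-induced luciferase signal.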

| IC50 | Compound |
| --- | --- |
| 4 nM | CN(CCCCCCC1=C(c2cccc(O)c2)CCCc2cc(O)ccc21)CCCCCS(=O)(=O)CCCC(F)(F)C(F)(F)F [Example 17, 8-(3-Hydroxyphenyl)-9-[6-(methyl{5-[(4,4,5,5,5-pentafluoropentyl)sulphonyl]pentyl}amino)hexyl]-6,7-dihydro-5H-benzo[7]annulen-3-ol] |
| 3 nM | CN(CCCCCC1=C(c2cccc(O)c2)CCCc2cc(O)ccc21)CCC[S+]([O-])CCCC(F)(F)C(F)(F)F (racemic) [Example 4, 8-(3-Hydroxyphenyl)-9-[5-(methyl{3-[(RS)-(4,4,5,5,5-pentafluoropentyl)sulphinyl]propyl}amino)pentyl]-6,7-dihydro-5H-benzo[7]annulen-3-ol] |
| 11 nM | CN(CCCCCCC1=C(c2ccc(F)c(O)c2)CCCc2cc(O)c(F)cc21)CCCS(=O)(=O)CCC(F)(F)C(F)(F)F [Example 123, 2-Fluoro-8-(4-fluoro-3-hydroxyphenyl)-9-[6-(methyl{3-[(3,3,4,4,4-pentafluorobutyl)sulphonyl]propyl}amino)hexyl]-6,7-dihydro-5H-benzo[7]annulen-3-ol] |
| 5 nM | CN(CCCCCC1=C(c2cccc(O)c2)CCCc2cc(O)ccc21)CCCS(=O)(=O)CCCC(F)(F)C(F)(F)F [Example 5, 8-(3-Hydroxyphenyl)-9-[5-(methyl{3-[(4,4,5,5,5-pentafluoropentyl)sulphonyl]propyl}amino)pentyl]-6,7-dihydro-5H-benzo[7]annulen-3-ol] |
| 4 nM | CN(CCCCCCS(=O)(=O)CCCC(F)(F)C(F)(F)F)CCCCCC1=C(c2cccc(O)c2)CCCc2cc(O)ccc21 [Example 11, 8-(3-Hydroxyphenyl)-9-[5-(methyl{6-[(4,4,5,5,5-pentafluoropentyl)sulphonyl]hexyl}amino)pentyl]-6,7-dihydro-5H-benzo[7]annulen-3-ol] |
| 3 nM | CN(CCCCCCC1=C(c2ccc(F)c(O)c2)CCCc2cc(O)ccc21)CCCCS(=O)(=O)CCCC(F)(F)C(F)(F)F [Example 31, 8-(4-Fluoro-3-hydroxyphenyl)-9-[6-(methyl{4-[(4,4,5,5,5-pentafluoropentyl)sulphonyl]butyl}amino)hexyl]-6,7-dihydro-5H-benzo[7]annulen-3-ol] |

Continued, compound first:

| Compound | IC50 |
| --- | --- |
| [O-][S+](CCCN(CCCO)CCCCCCC1=C(c2cccc(O)c2)CCCc2cc(O)ccc21)CCC(F)(F)F (racemic) [Example 96, 8-(3-Hydroxyphenyl)-9-{6-[(3-hydroxypropyl){3-[(RS)-(3,3,3-trifluoropropyl)sulphinyl]propyl}amino]hexyl}-6,7-dihydro-5H-benzo[7]annulen-3-ol] | 5 nM |
| [O-][S+](CCCN(CCCO)CCCCCCC1=C(c2cccc(O)c2)CCCc2cc(O)ccc21)CCCC(F)(F)C(F)(F)F (racemic) [Example 88, 8-(3-Hydroxyphenyl)-9-{6-[(3-hydroxypropyl){3-[(RS)-(4,4,5,5,5-pentafluoropentyl)sulphinyl]propyl}amino]hexyl}-6,7-dihydro-5H-benzo[7]annulen-3-ol] | 1 nM |
| CN(CCCCCCC1=C(c2ccccc2)CCCc2c1ccc(O)c2Cl)CCC[S+]([O-])CCCC(F)(F)C(F)(F)F (racemic) [Example 104, 4-Chloro-9-[6-(methyl{3-[(RS)-(4,4,5,5,5-pentafluoropentyl)sulphinyl]propyl}amino)hexyl]-8-phenyl-6,7-dihydro-5H-benzo[7]annulen-3-ol] | 25 nM |
| CC(C)(O)CN(CCCCCCC1=C(c2cccc(O)c2)CCCc2cc(O)ccc21)CCCS(=O)(=O)CCC(F)(F)F [Example 100, 9-{6-[(2-Hydroxy-2-methylpropyl){3-[(3,3,3-trifluoropropyl)sulphonyl]propyl}amino]hexyl}-8-(3-hydroxyphenyl)-6,7-dihydro-5H-benzo[7]annulen-3-ol] | 3 nM |
| O=S(=O)(CCCN(CCCO)CCCCCCC1=C(c2ccccc2)CCCc2cc(O)ccc21)CCC(F)(F)F [Example 81, 9-{6-[(3-Hydroxypropyl){3-[(3,3,3-trifluoropropyl)sulphonyl]propyl}amino]hexyl}-8-phenyl-6,7-dihydro-5H-benzo[7]annulen-3-ol] | 39 nM |
